The values below come from patent US8530493B2, “Indolopyridines as Eg5 kinesin modulators” (4SC AG, priority 2006, dated 2013).

The assay relates to RKO p21 uninduced (proliferating) colon adenocarcinoma cells. Briefly: Alamar Blue cell viability assay, RKO p21 uninduced (proliferating). The class given is cell-based. Conditions: Homo sapiens, Table B3, anti-proliferative/cytotoxic activity, 72 hours, read-out: −log EC50 RKO p21 uninduced (proliferating) (converted). The method, then: The anti-proliferative/cytotoxic activity of the compounds described herein can be tested on subclones of RKO human colon adenocarcinoma cells (Schmidt et al., Oncogene 19, 2423-2429; 2000) using the Alamar Blue cell viability assay (described in O'Brien et al. Eur J Biochem 267, 5421-5426, 2000). The compounds are dissolved as 10 mM solutions in DMSO and subsequently diluted in semi-logarithmic steps. DMSO dilutions are further diluted 1:100 into Dulbecco's modified Eagle's medium (DMEM) containing 10% fetal calf serum to a final concentration twice as much as the final concentration in the test. RKO subclones are seeded into 96 well flat bottom plates at a density of 4000 cells per well in a volume of 50 μl per well. 24 hours after seeding the 50 μl each of the compound dilutions in DMEM medium are added into each well of the 96 well plate. Each compound dilution is tested as triplicates. Wells containing untreated control cells are filled with 50 μl DMEM medium containing 1% DMSO. The cells are then incubated with the substances for 72 hours at 37° C. in a humidified atmosphere containing 5% carbon dioxide. To determine the viability of the cells, 10 μl of an Alamar Blue solution (Biosource) are added and the fluorescence is measured at an extinction of 544 nm and an emission of 590 nm. For the calculation of the cell viability the emission value from untreated cells is set as 100% viability and the emission rates of treated cells are set in relation to the values of untreated cells. Viabilities are expressed as % values. The Graphpad Prism program is used for the calculation of EC50 values for anti-proliferative/cytotoxic activity out of the obtained dose-response curves.
To determine the cell cycle specific mode of action, subclones of RKO colon adenocarcinoma cells (RKOp21 or RKOp27 as described by Schmidt et al. in Oncogene 19, 2423-2429; 2000) are seeded into 96 well flat bottom plates at a density of 16000 cells per well in a volume of 50 μl per well in DMEM growth medium with 10% FCS containing 10 μM Ponasterone A. 24 hours after seeding the 50 μl each of the compound dilutions in DMEM medium are added into each well of the 96-well plate. Each compound dilution is tested as triplicates. Wells containing untreated control cells are filled with 50 μl DMEM medium containing 1% DMSO. The cells are then incubated with the substances for 72 hours at 37° C. in a humidified atmosphere containing 5% carbon dioxide. To determine the viability of the cells, 10 μl of an Alamar Blue solution (Biosource) are added and the fluorescence is measured at an extinction of 544 nm and an emission of 590 nm. For the calculation of the cell viability the emission value from untreated cells is set as 100% viability and the emission rates of treated cells are set in relation to the values of untreated cells. Viabilities are expressed as % values. The Graphpad Prism program (GraphPad Software, Inc) is used for the calculation of EC50 values out of the obtained dose-response curves. Viability is compared of proliferating cells grown in the absence of the inducer Ponasterone A, versus viability of cells arrested by the expression of ectopic p27Kip1 induced by Ponasterone A.
Representative values for anti-proliferation/cytotoxicity [measured as −log EC50 (mol/l)] determined in the aforementioned assays follow from the following tables B1, B2 and B3, in which the numbers of the compounds correspond to the numbers of the examples.

Usually EC50 stands for the concentration that produces a half-maximal response.

Take `COCCNCCN1C(=O)N2[C@H](c3cccc(O)c3)c3[nH]c4ccc(OC(F)F)cc4c3C[C@@]2(C)C1=O` (racemic) [Example 271, (3aSR,10RS)-6-(1,1-Difluoro-methoxy)-10-(3-hydroxy-phenyl)-2-[2-(2-methoxy-ethylamino)-ethyl]-3a-methyl-3a,4,9,10-tetrahydro-2,9,10a-triaza-cyclopenta[b]fluorene-1,3-dione]: the EC50 is at most 39.8 nM.
With `C[C@@]12Cc3c([nH]c4cc(F)c(Cl)cc34)[C@@H](c3cccc(O)c3)N1C(=O)N(CCCNC1CCC1)C2=O` (racemic) [Example 463, (3aSR,10RS)-6-Chloro-2-(3-cyclobutylamino-propyl)-7-fluoro-10-(3-hydroxy-phenyl)-3a-methyl-3a,4,9,10-tetrahydro-2,9,10a-triaza-cyclopenta[b]fluorene-1,3-dione] the figure was 39.8 to 251 nM.
As for `C[C@@]12Cc3c([nH]c4cc(F)c(Cl)cc34)[C@@H](c3cccc(O)c3)N1C(=O)N(CCNCCO)C2=O` (racemic) [Example 342, (3aSR,10RS)-6-Chloro-7-fluoro-2-[2-(2-hydroxy-ethylamino)-ethyl]-10-(3-hydroxy-phenyl)-3a-methyl-3a,4,9,10-tetrahydro-2,9,10a-triaza-cyclopenta[b]fluorene-1,3-dione], the figure is at most 39.8 nM; as for `CCOc1ccc2[nH]c3c(c2c1)C[C@@]1(C)C(=O)N(CCNC(C)(C)C)C(=O)N1[C@@H]3c1cccc(O)c1` (racemic) [Example 156, (3aSR,10RS)-2-(2-tert-Butylamino-ethyl)-6-ethoxy-10-(3-hydroxy-phenyl)-3a-methyl-3a,4,9,10-tetrahydro-2,9,10a-triaza-cyclopenta[b]fluorene-1,3-dione], at most 39.8 nM; as for `CC(=O)N1CCN(CCCN2C(=O)N3[C@H](c4cccc(O)c4)c4[nH]c5cc(F)c(Cl)cc5c4C[C@@]3(C)C2=O)CC1` (racemic) [Example 482, (3aSR,10RS)-2-[3-(4-Acetyl-piperazin-1-yl)-propyl]-6-chloro-7-fluoro-10-(3-hydroxy-phenyl)-3a-methyl-3a,4,9,10-tetrahydro-2,9,10a-triaza-cyclopenta[b]fluorene-1,3-dione], 39.8 to 251 nM.
For `C=CCNCCN1C(=O)N2[C@H](c3cccc(O)c3)c3[nH]c4cc(F)c(Cl)cc4c3C[C@@]2(C)C1=O` (racemic) [Example 346, (3aSR,10RS)-2-(2-Allylamino-ethyl)-6-chloro-7-fluoro-10-(3-hydroxy-phenyl)-3a-methyl-3a,4,9,10-tetrahydro-2,9,10a-triaza-cyclopenta[b]fluorene-1,3-dione], the EC50 was at most 39.8 nM.
With `COc1ccc2[nH]c3c(c2c1F)C[C@@]1(C)C(=O)N(CCNCC2CC2)C(=O)N1[C@@H]3c1cccc(O)c1` (racemic) [Example 410, (3aSR,10RS)-2-[2-(Cyclopropylmethyl-amino)-ethyl]-5-fluoro-10-(3-hydroxy-phenyl)-6-methoxy-3a-methyl-3a,4,9,10-tetrahydro-2,9,10a-triaza-cyclopenta[b]fluorene-1,3-dione], the EC50 was 39.8 to 251 nM.
`CCNCCN1C(=O)N2[C@H](c3cccc(O)c3)c3[nH]c4ccc(OC)c(F)c4c3C[C@@]2(C)C1=O` (racemic) [Example 407, (3aSR,10RS)-2-(2-Ethylamino-ethyl)-5-fluoro-10-(3-hydroxy-phenyl)-6-methoxy-3a-methyl-3a,4,9,10-tetrahydro-2,9,10a-triaza-cyclopenta[b]fluorene-1,3-dione]: the EC50 is 39.8 to 251 nM.
With `CCN(CCO)CCCN1C(=O)N2[C@H](c3cccc(O)c3)c3[nH]c4ccc(OC(F)F)cc4c3C[C@@]2(C)C1=O` (racemic) [Example 177, (3aSR,10RS)-6-(1,1-Difluoro-methoxy)-2-{3-[ethyl-(2-hydroxy-ethyl)-amino]-propyl}-10-(3-hydroxy-phenyl)-3a-methyl-3a,4,9,10-tetrahydro-2,9,10a-triaza-cyclopenta[b]fluorene-1,3-dione], the EC50 is at most 39.8 nM.
On to `COc1cc2c3c([nH]c2cc1F)[C@@H](c1cccc(O)c1)N1C(=O)N(CCN2CCCC2)C(=O)[C@]1(C)C3` (racemic) [Example 261, (3aSR,10RS)-7-Fluoro-10-(3-hydroxy-phenyl)-6-methoxy-3a-methyl-2-(2-pyrrolidin-1-yl-ethyl)-3a,4,9,10-tetrahydro-2,9,10a-triaza-cyclopenta[b]fluorene-1,3-dione], for which the EC50 is 39.8 to 251 nM.
On to `CCN(C)CCN1C(=O)N2[C@H](c3cccc(O)c3)c3[nH]c4cc(F)c(Cl)cc4c3C[C@@]2(C)C1=O` (racemic) [Example 347, (3aSR,10RS)-6-Chloro-2-[2-(ethyl-methyl-amino)-ethyl]-7-fluoro-10-(3-hydroxy-phenyl)-3a-methyl-3a,4,9,10-tetrahydro-2,9,10a-triaza-cyclopenta[b]fluorene-1,3-dione], for which the EC50 is at most 39.8 nM.
Regarding `CCOc1ccc2[nH]c3c(c2c1)C[C@@]1(C)C(=O)N(CCNC(C)C)C(=O)N1[C@@H]3c1cccc(O)c1` (racemic) [Example 152, (3aSR,10RS)-6-Ethoxy-10-(3-hydroxy-phenyl)-2-(2-isopropylamino-ethyl)-3a-methyl-3a,4,9,10-tetrahydro-2,9,10a-triaza-cyclopenta[b]fluorene-1,3-dione], the EC50 was at most 39.8 nM.
Take `CC(=O)N1CCN(CCN2C(=O)N3[C@H](c4cccc(O)c4)c4[nH]c5ccc(OC(F)F)cc5c4C[C@@]3(C)C2=O)CC1` (racemic) [Example 295, (3aSR,10RS)-2-[2-(4-Acetyl-piperazin-1-yl)-ethyl]-6-(1,1-difluoro-methoxy)-10-(3-hydroxy-phenyl)-3a-methyl-3a,4,9,10-tetrahydro-2,9,10a-triaza-cyclopenta[b]fluorene-1,3-dione]: the EC50 is 39.8 to 251 nM.
Consider `CC(C)N(C)CCN1C(=O)N2[C@H](c3cccc(O)c3)c3[nH]c4cc(F)c(Cl)cc4c3C[C@@]2(C)C1=O` (racemic) [Example 352, (3aSR,10RS)-6-Chloro-7-fluoro-10-(3-hydroxy-phenyl)-2-[2-(isopropyl-methyl-amino)-ethyl]-3a-methyl-3a,4,9,10-tetrahydro-2,9,10a-triaza-cyclopenta[b]fluorene-1,3-dione], for which the EC50 was at most 39.8 nM.
For the compound `C[C@@]12Cc3c([nH]c4ccc(Br)cc34)[C@@H](c3cccc(O)c3)N1C(=O)N(CCCN1CC=CCC1)C2=O` (racemic) [Example 232, (3aSR,10RS)-6-Bromo-2-[3-(3,6-dihydro-2H-pyridin-1-yl)-propyl]-10-(3-hydroxy-phenyl)-3a-methyl-3a,4,9,10-tetrahydro-2,9,10a-triaza-cyclopenta[b]fluorene-1,3-dione], the EC50 is at most 39.8 nM.
For the compound `CCOc1ccc2[nH]c3c(c2c1)C[C@@]1(C)C(=O)N(CCCN(C)C)C(=O)N1[C@@H]3c1cccc(O)c1` (racemic) [Example 226, (3aSR,10RS)-2-(3-Dimethylamino-propyl)-6-ethoxy-10-(3-hydroxy-phenyl)-3a-methyl-3a,4,9,10-tetrahydro-2,9,10a-triaza-cyclopenta[b]fluorene-1,3-dione], the EC50 was 39.8 to 251 nM.
Regarding `CN1CCN(CCN2C(=O)N3[C@H](c4cccc(O)c4)c4[nH]c5ccc(OC(F)F)cc5c4C[C@@]3(C)C2=O)CC1` (racemic) [Example 294, (3aSR,10RS)-6-(1,1-Difluoro-methoxy)-10-(3-hydroxy-phenyl)-3a-methyl-2-[2-(4-methyl-piperazin-1-yl)-ethyl}-3a,4,9,10-tetrahydro-2,9,10a-triaza-cyclopenta[b]fluorene-1,3-dione], the EC50 was 39.8 to 251 nM.
Consider `CCN(CC)CCCN1C(=O)N2[C@H](c3cccc(O)c3)c3[nH]c4cc(F)c(OC)cc4c3C[C@@]2(C)C1=O` (racemic) [Example 313, (3aSR,10RS)-2-(3-Diethylamino-propyl)-7-fluoro-10-(3-hydroxy-phenyl)-6-methoxy-3a-methyl-3a,4,9,10-tetrahydro-2,9,10a-triaza-cyclopenta[b]fluorene-1,3-dione], for which the EC50 is 39.8 to 251 nM.
